# Results: patent publication US12071434B2, “Heterocyclic compound” (Takeda Pharmaceutical Company Limited, priority 2018, dated 2024)
# Target: T1, human orexin type 2 receptor (Homo sapiens, UniProt O43614)
# T1 construct: expressed in transfected cells
# T1 sequence (O43614 1-444): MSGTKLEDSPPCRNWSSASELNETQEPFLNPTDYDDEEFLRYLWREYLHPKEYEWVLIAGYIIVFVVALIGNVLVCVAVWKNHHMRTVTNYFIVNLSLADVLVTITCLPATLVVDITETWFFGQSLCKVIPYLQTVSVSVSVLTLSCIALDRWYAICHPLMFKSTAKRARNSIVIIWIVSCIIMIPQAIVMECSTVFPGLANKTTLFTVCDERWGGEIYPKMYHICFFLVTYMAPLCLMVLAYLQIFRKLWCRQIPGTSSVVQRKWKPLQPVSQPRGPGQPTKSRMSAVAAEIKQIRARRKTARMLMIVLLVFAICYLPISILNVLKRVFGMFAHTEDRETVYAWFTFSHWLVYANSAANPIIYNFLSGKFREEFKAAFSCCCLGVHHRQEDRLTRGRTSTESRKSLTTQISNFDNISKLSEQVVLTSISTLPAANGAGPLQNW
# Experiment: Measurement of orexin type 2 receptor agonist activity (calcium fluorescence, Fluo-4 AM, FDSS) in CHO cells forcibly expressing human OX2 receptor
# Assay type: cell-based
# Settings: test compound 3 μM, DMSO = 0%, orexin A (human) 10 nM = 100%
# How it was run: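 CHO-dhfr cells stably expressing human OX2 receptor, loaded with Fluo-4 AM plus probenecid for 30 min at 37 °C, then 30 min at room temperature. Calcium fluorescence read for about 2 min 40 s after compound addition. Activity (%) scaled between DMSO (0%) and 10 nM human orexin A (100%).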
row,"0X2R agonist activity (3 μM, %) [%]",Structure (SMILES)
1,100,"[2H]C([2H])([2H])C([2H])([2H])n1ccc2c(c1=O)C(Cc1cccc(-c3cccc(F)c3F)c1)C(NS(C)(=O)=O)CC2 (racemic) [Example 147, rac-N-{(7S,8R)-8-[(2′,3′-difluoro[1,1′-biphenyl]-3-yl)methyl]-2-(~2~H_5_)ethyl-1-oxo-1,2,5,6,7,8-hexahydroisoquinolin-7-yl}methanesulfonamide]"
2,107,"CC(C)n1cnc2c(c1=O)[C@@H](Cc1cccc(-c3cccc(F)c3F)c1F)[C@@H](NS(C)(=O)=O)CC2 (relative stereo) [Example 151, rel-N-{(5R,6S)-4-oxo-3-(propan-2-yl)-5-[(2,2′,3′-trifluoro[1,1′-biphenyl]-3-yl)methyl]-3,4,5,6,7,8-hexahydroquinazolin-6-yl}methanesulfonamide]"
3,95,"CC(C)n1cnc2c(c1=O)[C@@H](Cc1cccc(-c3ccccc3F)c1F)[C@@H](NS(=O)(=O)C1(F)CC1)CC2 [Example 183, N-[(5R,6S)-5-[(2,2′-difluoro[1,1′-biphenyl]-3-yl)methyl]-4-oxo-3-(propan-2-yl)-3,4,5,6,7,8-hexahydroquinazolin-6-yl]-1-fluorocyclopropane-1-sulfonamide]"
4,91,"CC(C)n1cnc2c(c1=O)[C@@H](Cc1csc(-c3ccccc3)n1)[C@@H](NS(=O)(=O)C1CC1)CC2 (relative stereo) [Example 169, rel-N-[(5R,6S)-4-oxo-5-[(2-phenyl-1,3-thiazol-4-yl)methyl]-3-(propan-2-yl)-3,4,5,6,7,8-hexahydroquinazolin-6-yl]cyclopropanesulfonamide]"
5,95,"CC(C)n1cnc2c(c1=O)C(Cc1cccc(-c3ccccc3)c1)C(NS(=O)(=O)C1(F)CC1)CC2 (stereo not drawn) [Example 185, rel-N-{5-[([1,1′-biphenyl]-3-yl)methyl]-4-oxo-3-(propan-2-yl)-3,4,5,6,7,8-hexahydroquinazolin-6-yl}-1-fluorocyclopropane-1-sulfonamide]"
6,90,"CC(C)n1cnc2c(c1=O)C(Cc1cccc(-c3cccc(F)c3F)c1)C(NS(=O)(=O)C1(F)CC1)CC2 (stereo not drawn) [Example 191, rel-N-{5-[(2′,3′-difluoro[1,1′-biphenyl]-3-yl)methyl]-4-oxo-3-(propan-2-yl)-3,4,5,6,7,8-hexahydroquinazolin-6-yl}-1-fluorocyclopropane-1-sulfonamide]"
7,112,"Cc1cc(C)c(=O)n2c1CC[C@H](NS(C)(=O)=O)[C@@H]2Cc1cccc(-c2ccccc2)c1 (racemic) [Example 13, rac-N-{(3S,4S)-4-[([1,1′-biphenyl]-3-yl)methyl]-7,9-dimethyl-6-oxo-1,3,4,6-tetrahydro-2H-quinolizin-3-yl}methanesulfonamide]"
8,103,"CCn1ccc2c(c1=O)[C@@H](Cc1cccc(-c3cccc4c3OCC4)c1)[C@@H](NS(C)(=O)=O)CC2 (racemic) [Example 126, rac-N-[(7S,8R)-8-{[3-(2,3-dihydro-1-benzofuran-7-yl)phenyl]methyl}-2-ethyl-1-oxo-1,2,5,6,7,8-hexahydroisoquinolin-7-yl]methanesulfonamide]"
9,97,"CCn1ccc2c(c1=O)[C@@H](Cc1cccc(-c3ccccc3)c1F)[C@@H](NS(C)(=O)=O)CC2 (racemic) [Example 87, rac-N-{(7S,8R)-2-ethyl-8-[(2-fluoro[1,1′-biphenyl]-3-yl)methyl]-1-oxo-1,2,5,6,7,8-hexahydroisoquinolin-7-yl}methanesulfonamide]"
10,107,"CCS(=O)(=O)N[C@H]1CCc2ncn(C(C)C)c(=O)c2[C@H]1Cc1cccc(-c2cc(C)ccn2)c1 (racemic) [Example 98, rac-N-[(5R,6S)-5-{[3-(4-methylpyridin-2-yl)phenyl]methyl}-4-oxo-3-(propan-2-yl)-3,4,5,6,7,8-hexahydroquinazolin-6-yl]ethanesulfonamide]"
11,93,"CCS(=O)(=O)N[C@H]1CCc2ncn(C(C)C)c(=O)c2[C@H]1Cc1cccc(-c2ccccc2)c1 (racemic) [Example 80, rac-N-[(5R,6S)-5-[([1,1′-biphenyl]-3-yl)methyl]-4-oxo-3-(propan-2-yl)-3,4,5,6,7,8-hexahydroquinazolin-6-yl]ethanesulfonamide]"
12,92,"Cc1ccc2n(c1=O)[C@@H](Cc1csc(-c3ccccc3)n1)[C@@H](NS(C)(=O)=O)CC2 (racemic) [Example 58, rac-N-{(3S,4S)-7-methyl-6-oxo-4-[(2-phenyl-1,3-thiazol-4-yl)methyl]-1,3,4,6-tetrahydro-2H-quinolizin-3-yl}methanesulfonamide]"
13,97,"Cc1nc2c(c(=O)n1C(C)C)[C@@H](Cc1cccc(-c3ccccc3)c1)[C@@H](NS(C)(=O)=O)CC2 (racemic) [Example 70, rac-N-{(5R,6S)-5-[([1,1′-biphenyl]-3-yl)methyl]-2-methyl-4-oxo-3-(propan-2-yl)-3,4,5,6,7,8-hexahydroquinazolin-6-yl}methanesulfonamide]"
14,95,"CC(C)n1c(=O)c2c(n1C)CCC(NS(C)(=O)=O)C2Cc1cccc(-c2ccccc2)c1 [Example 208, rel-N-[(4aR,5S)-4-[([1,1′-biphenyl]-3-yl)methyl]-1-methyl-3-oxo-2-(propan-2-yl)-2,3,4,5,6,7-hexahydro-1H-indazol-5-yl]methanesulfonamide]"
15,81,"Cn1cc2n(c1=O)C(Cc1cccc(-c3ccccc3)c1)C(NC(=O)[C@@H]1CCCO1)CC2 (mixture of isomers) [Example 205, (2S)-N-{(5SR,6SR)-5-[([1,1′-biphenyl]-3-yl)methyl]-2-methyl-3-oxo-2,3,5,6,7,8-hexahydroimidazo[1,5-a]pyridin-6-yl}oxolane-2-carboxamide]"
16,100,"CC(C)n1cnc2c(c1=O)C(Cc1cccc(-c3ccccc3)c1)C(NS(C)(=O)=O)C(F)C2=O (racemic) [Example 179, N-[(5RS,6RS)-5-[([1,1′-biphenyl]-3-yl)methyl]-7-fluoro-4,8-dioxo-3-(propan-2-yl)-3,4,5,6,7,8-hexahydroquinazolin-6-yl]methanesulfonamide]"
17,101,"CC(C)n1cnc2c(c1=O)C(Cc1cccc(-c3cccc(F)c3)c1)C(NS(C)(=O)=O)CC2 [Example 89, rel-N-[(5R,6S)-5-[(3′-fluoro[1,1′-biphenyl]-3-yl)methyl]-4-oxo-3-(propan-2-yl)-3,4,5,6,7,8-hexahydroisoquinazolin-6-yl]methanesulfonamide]"
18,92,"COC1(C(=O)N[C@H]2CCc3ncn(C(C)C)c(=O)c3[C@H]2Cc2cccc(-c3ccccc3)c2)CC1 (racemic) [Example 63, rac-N-[(5R,6S)-5-[([1,1′-biphenyl]-3-yl)methyl]-4-oxo-3-(propan-2-yl)-3,4,5,6,7,8-hexahydroquinazolin-6-yl]-1-methoxycyclopropane-1-carboxamide]"
19,93,"CC(C)c1ccc2n(c1=O)[C@@H](Cc1cccc(-c3cccc(F)c3)c1F)[C@@H](NC(=O)C(=O)N(C)C)CC2 (racemic) [Example 40, rac-N~2~-[(3S,4S)-4-[(2,3′-difluoro[1,1′-biphenyl]-3-yl)methyl]-6-oxo-7-(propan-2-yl)-1,3,4,6-tetrahydro-2H-quinolizin-3-yl]-N~1~,N~1~-dimethylethanediamide]"
20,91,"CC(C)n1cnc2c(c1=O)[C@@H](Cc1cccc(-c3cccc(F)c3)c1F)[C@@H](NS(=O)(=O)C1(F)CC1)CC2 [Example 181, N-[(5R,6S)-5-[(2,3′-difluoro[1,1′-biphenyl]-3-yl)methyl]-4-oxo-3-(propan-2-yl)-3,4,5,6,7,8-hexahydroquinazolin-6-yl]-1-fluorocyclopropane-1-sulfonamide]"
21,100,"CCS(=O)(=O)N[C@H]1CCc2ncn(C(C)C)c(=O)c2[C@H]1Cc1cccc(-c2cccc(C)c2F)c1 (racemic) [Example 83, rac-N-[(5R,6S)-5-[(2′-fluoro-3′-methyl[1,1′-biphenyl]-3-yl)methyl]-4-oxo-3-(propan-2-yl)-3,4,5,6,7,8-hexahydroquinazolin-6-yl]ethanesulfonamide]"
22,91,"CC(C)n1cnc2c(c1=O)C(Cc1csc(-c3ccccc3)n1)C(NS(=O)(=O)C1(F)CC1)CC2 (stereo not drawn) [Example 194, rel-1-fluoro-N-{4-oxo-5-[(2-phenyl-1,3-thiazol-4-yl)methyl]-3-(propan-2-yl)-3,4,5,6,7,8-hexahydroquinazolin-6-yl}cyclopropane-1-sulfonamide]"
23,44,"Cc1n[nH]c(=O)c2c1CC[C@H](NS(C)(=O)=O)[C@@H]2Cc1cccc(-c2ccccc2)c1 (racemic) [Example 138, rac-N-{(5R,6S)-5-[([1,1′-biphenyl]-3-yl)methyl]-1-methyl-4-oxo-3,4,5,6,7,8-hexahydrophthalazin-6-yl}methanesulfonamide]"
24,96,"Cc1ccc2n(c1=O)C(Cc1cccc(-c3cccc(F)c3)c1)C(NC(=O)[C@@H]1CCCO1)CC2 (stereo in doubt) [Example 44, (2S)-N-{(3S*,4S*)-4-[(3′-fluoro[1,1′-biphenyl]-3-yl)methyl]-7-methyl-6-oxo-1,3,4,6-tetrahydro-2H-quinolizin-3-yl}oxolane-2-carboxamide]"
